Inconclusive results and toxic doses are left out. Rule as the data show it: active = T/C of 150% or more; inactive = T/C below 125%.
Test system: L1210 leukemia ip in BDF1 mice, survival T/C
Assay: NCI In Vivo Anticancer Drug Screen. Data for tumor model L1210 Leukemia (intraperitoneal) in B6D2F1 (BDF1) mice
Conditions: endpoint: mean survival time, higher = longer survival
Method in brief: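 Value reflects the ratio of survival in compound-treated mice to survival in vehicle-treated controls, with both groups carrying the same transplanted tumor.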

[1] = dose: 50.0 mg/kg/injection, schedule: Q01DX009 (ip), vehicle: saline with Tween-80
[2] = dose: 100.0 mg/kg/injection, schedule: Q01DX009 (ip), vehicle: saline with Tween-80
[3] = dose: 100.0 mg/kg/injection, schedule: Q04DX003 (ip), vehicle: saline with Tween-80
[4] = dose: 200.0 mg/kg/injection, schedule: Q01DX009 (ip), vehicle: saline with Tween-80
[5] = dose: 200.0 mg/kg/injection, schedule: Q04DX003 (ip), vehicle: saline with Tween-80
[6] = dose: 100.0 mg/kg/injection, schedule: Q04DX003 (ip), vehicle: saline
[7] = dose: 200.0 mg/kg/injection, schedule: Q04DX003 (ip), vehicle: saline
[8] = dose: 100.0 mg/kg/injection, schedule: Q01DX001 (ip), vehicle: saline
[9] = dose: 200.0 mg/kg/injection, schedule: Q01DX001 (ip), vehicle: saline
[10] = dose: 400.0 mg/kg/injection, schedule: Q04DX003 (ip), vehicle: saline with Tween-80

Measured: T/C

O=C(OCc1ccccc1CN1CCOCC1)c1cccc(Cl)c1
inactive: dose: 100.0 mg/kg/injection, schedule: Q04DX002 (ip), vehicle: Klucel (hydroxypropylcellulose) (HPC) 92 % of control | dose: 200.0 mg/kg/injection, schedule: Q04DX002 (ip), vehicle: Klucel (hydroxypropylcellulose) (HPC) 92 % of control | dose: 400.0 mg/kg/injection, schedule: Q04DX002 (ip), vehicle: Klucel (hydroxypropylcellulose) (HPC) 95 % of control

CCOC(=O)/C=C/c1ccco1
inactive: [1] 93 % of control | [2] 96 % of control | [3] 103 % of control | [4] 93 % of control | [5] 95 % of control

C[CH2][Ge]([CH2]C)[O][Ge]([CH2]C)[CH2]C.C[CH2][Ge]([CH2]C)[O][Ge]([CH2]C)[CH2]C
inactive: dose: 5.0 mg/kg/injection, schedule: Q04DX002 (ip), vehicle: saline with Tween-80 96 % of control | dose: 10.0 mg/kg/injection, schedule: Q04DX002 (ip), vehicle: saline with Tween-80 96 % of control | dose: 20.0 mg/kg/injection, schedule: Q04DX002 (ip), vehicle: saline with Tween-80 100 % of control

CC[N+](C)(CC)CCCOC(=O)c1ccccc1Oc1ccc(C)cc1
inactive: [6] 104 % of control | [7] 93 % of control

CC12COC(=O)CC1CCC1C2CCC2(C)C1CCC2(C)O (stereo not given)
inactive: [1] 96 % of control | [8] 93 % of control | [2] 91 % of control | [9] 90 % of control | [4] 101 % of control

C=CC1CC1(C(=O)O)C(=O)O (stereo not given)
inactive: [2] 93 % of control | [3] 98 % of control | [4] 96 % of control | [5] 98 % of control | dose: 400.0 mg/kg/injection, schedule: Q01DX009 (ip), vehicle: saline with Tween-80 90 % of control | [10] 93 % of control

CC1CN=C(c2ccc(NC(=O)Nc3ccc(C4=NCCN4)cc3)cc2)N1 (stereo not given)
inactive: dose: 1.88 mg/kg/injection, schedule: Q01DX Z (ip), vehicle: saline 112 % of control | dose: 3.75 mg/kg/injection, schedule: Q01DX Z (ip), vehicle: saline 113 % of control

CCCCCCCCCCCCCCCCCCSc1ccc2ccccc2c1
inactive: dose: 100.0 mg/kg/injection, schedule: Q04DX003 (ip), vehicle: Klucel (hydroxypropylcellulose) (HPC) 105 % of control | dose: 200.0 mg/kg/injection, schedule: Q04DX003 (ip), vehicle: Klucel (hydroxypropylcellulose) (HPC) 94 % of control | dose: 400.0 mg/kg/injection, schedule: Q04DX003 (ip), vehicle: Klucel (hydroxypropylcellulose) (HPC) 91 % of control

CCCCCC(CN(C)C)C(O)/C=C\c1ccccc1 (stereo not given)
inactive: dose: 12.5 mg/kg/injection, schedule: Q01DX009 (sc), vehicle: steriod suspending solution 97 % of control | dose: 12.5 mg/kg/injection, schedule: Q04DX003 (ip), vehicle: other 119 % of control | dose: 25.0 mg/kg/injection, schedule: Q01DX009 (sc), vehicle: steriod suspending solution 98 % of control | dose: 25.0 mg/kg/injection, schedule: Q04DX003 (ip), vehicle: other 106 % of control | dose: 50.0 mg/kg/injection, schedule: Q01DX009 (sc), vehicle: steriod suspending solution 97 % of control | dose: 50.0 mg/kg/injection, schedule: Q04DX003 (ip), vehicle: other 103 % of control

CNC1(c2ccccc2)C(=O)CC2CCC1C2 (stereo not given)
inactive: dose: 50.0 mg/kg/injection, schedule: Q04DX003 (ip), vehicle: saline 99 % of control | [8] 105 % of control | [6] 100 % of control | [9] 107 % of control

CO[C@@H]([CH2][Hg][S]C#N)[C@@H]([CH2][Hg][S]C#N)OC
inactive: dose: 6.25 mg/kg/injection, schedule: Q01DX009 (ip), vehicle: saline sonified 94 % of control | dose: 12.5 mg/kg/injection, schedule: Q01DX009 (ip), vehicle: saline sonified 90 % of control | dose: 12.5 mg/kg/injection, schedule: Q04DX003 (ip), vehicle: saline sonified 97 % of control | dose: 25.0 mg/kg/injection, schedule: Q01DX009 (ip), vehicle: saline sonified 93 % of control | dose: 25.0 mg/kg/injection, schedule: Q04DX003 (ip), vehicle: saline sonified 88 % of control

O=C(C[n+]1cccc(C(=O)Nc2ccc(Cl)cc2)c1)Nc1ccccc1
inactive: [6] 92 % of control | [7] 101 % of control

C#CC(C)(C)NC(=O)NC(C)(C)C
inactive: dose: 100.0 mg/kg/injection, schedule: Q04DX002 (ip), vehicle: gum acacia 112 % of control | dose: 200.0 mg/kg/injection, schedule: Q04DX002 (ip), vehicle: gum acacia 91 % of control | dose: 400.0 mg/kg/injection, schedule: Q04DX002 (ip), vehicle: gum acacia 102 % of control

Cc1cc(Cc2cc(C)c(C)c(C)c2C)c(C)c(C)c1C
inactive: dose: 100.0 mg/kg/injection, schedule: Q01DX001 (ip), vehicle: other 96 % of control | dose: 200.0 mg/kg/injection, schedule: Q01DX001 (ip), vehicle: other 95 % of control | dose: 400.0 mg/kg/injection, schedule: Q01DX001 (ip), vehicle: other 90 % of control

O=[N+]([O-])/C=C/c1c[nH]c2ccccc12
inactive: [3] 92 % of control | [5] 106 % of control | [10] 103 % of control

CCOC(=O)C(C(=O)OCC)C(CC(=O)c1ccccc1)c1ccccc1 (stereo not given)
inactive: dose: 100.0 mg/kg/injection, schedule: Q01DX009 (ip), vehicle: Klucel (hydroxypropylcellulose) (HPC) 98 % of control | dose: 200.0 mg/kg/injection, schedule: Q01DX009 (ip), vehicle: Klucel (hydroxypropylcellulose) (HPC) 93 % of control | dose: 400.0 mg/kg/injection, schedule: Q01DX009 (ip), vehicle: Klucel (hydroxypropylcellulose) (HPC) 94 % of control

CCCCC1CN=C(c2ccc(NC(=O)c3ccc(C(=O)Nc4ccc(C5=NCC(CCCC)CN5)cc4)c(Cl)c3)cc2)NC1 (stereo not given)
inactive: dose: 5.0 mg/kg/injection, schedule: Q01DX015 (ip), vehicle: methylcellulose (MC) 109 % of control | dose: 22.5 mg/kg/injection, schedule: Q01DX015 (ip), vehicle: methylcellulose (MC) 123 % of control | dose: 45.0 mg/kg/injection, schedule: Q01DX015 (ip), vehicle: methylcellulose (MC) 111 % of control | dose: 62.0 mg/kg/injection, schedule: Q01DX015 (ip), vehicle: methylcellulose (MC) 109 % of control

Nc1csnn1
inactive: dose: 50.0 mg/kg/injection, schedule: Q01DX001 (ip), vehicle: carboxymethylcellulose (CMC) 98 % of control | dose: 100.0 mg/kg/injection, schedule: Q01DX001 (ip), vehicle: carboxymethylcellulose (CMC) 96 % of control | dose: 200.0 mg/kg/injection, schedule: Q01DX001 (ip), vehicle: carboxymethylcellulose (CMC) 98 % of control

CCCC(=O)N1C(C)CCC1C (stereo not given)
inactive: dose: 100.0 mg/kg/injection, schedule: Q04DX002 (ip), vehicle: saline with Tween-80 103 % of control | dose: 200.0 mg/kg/injection, schedule: Q04DX002 (ip), vehicle: saline with Tween-80 95 % of control

CC(=O)NC1C(OC(C)=O)OC(COC(c2ccccc2)(c2ccccc2)c2ccccc2)C(O)C1OC(C)=O (stereo not given)
inactive: dose: 6.25 mg/kg/injection, schedule: Q01DX009 (ip), vehicle: saline with Tween-80 96 % of control | dose: 12.5 mg/kg/injection, schedule: Q01DX009 (ip), vehicle: saline with Tween-80 93 % of control | dose: 25.0 mg/kg/injection, schedule: Q01DX009 (ip), vehicle: saline with Tween-80 93 % of control | dose: 25.0 mg/kg/injection, schedule: Q04DX003 (ip), vehicle: saline with Tween-80 109 % of control | [1] 93 % of control | dose: 50.0 mg/kg/injection, schedule: Q04DX003 (ip), vehicle: saline with Tween-80 121 % of control | [5] 91 % of control | [10] 88 % of control

Source: PubChem BioAssay AID248 (DTP/NCI, 2004)
